Laboratory results published in paper PMC5877439 (British Journal of Cancer, 2018).

Columns and labels:
[1] = Plasma MK-0752 PK analysis; assay type: in vivo, human
[2] = Tumour MK-0752 concentration in biopsies; assay type: in vivo, human; conditions: between the 1500 and 2100 mg doses; data limited
[3] = Safety, tolerability, DLT and MTD; assay type: in vivo, human
[4] = system: Notch signalling; test: Notch signature score in plucked hair follicles; assay type: in vivo, human; conditions: number of samples limited
[5] = ref Krop et al, 2012, cited from earlier work

SMILES	MK-0752 plasma exposure across the dose groups ([1]; 1200-2400 mg once weekly)	Plasma MK-0752 exposure (AUC0-t) and Cmax, effect of gemcitabine ([1]; day 1 (MK-0752+gemcitabine) vs day -7 (MK-0752 alone), 40 patients)	Tumour MK-0752 concentration across doses [2]	MTD / RP2D of MK-0752 in combination with gemcitabine ([3]; p.o. once weekly, with gemcitabine 1000 mg m^-2)	Relationship between MK-0752 dose and fold-change in Notch score [4]	Drug exposure with dose, single agent ([5]; phase I studies of MK-0752 alone)	Recommended dose for phase II evaluation (RP2D), single agent ([5]; single-agent studies)	Maximum tolerated dose (MTD), single agent ([5]; weekly schedule, MK-0752 alone)	MTD / RP2D of gemcitabine in combination with MK-0752 ([3]; i.v. days 1, 8 and 15 of 28 day cycle, with MK-0752 1800 mg)
O=C(O)CC[C@H]1CC[C@@](c2cc(F)ccc2F)(S(=O)(=O)c2ccc(Cl)cc2)CC1 [MK-0752]	no increment in exposure beyond the RP2D single-agent dose (1800 mg weekly)	did not appear to be affected by the addition of gemcitabine	no increment	1800 mg	no relationship	no significant increase in drug exposure between 1800 mg and 3200 mg	1800 mg	3200 mg	
Nc1ccn([C@@H]2O[C@H](CO)[C@@H](O)C2(F)F)c(=O)n1 [gemcitabine, 2′,2′,-difluoro-2′,-deoxycytidine, reference compound]									1000 mg m^-2
